The source of these data is US20100178243A1, “Novel method of stabilizing diagnostic and therapeutic compounds in a cationic carrier system” (MediGene AG, priority 2002, published 2010).

A short description of series [1]: Diafiltration: retention of fluorescein dyes in liposome suspension (direct loading). The following applies: for Conc. marker after diafiltration: 25 mM. In kind it is physicochemical. The source says:
Liposomes may be formed by the well-known film method, such as described in the literature.[1] Briefly, from the organic solution of the lipid, or the lipid plus the drug, the solvent is evaporated, and a thin film of lipid (or lipid plus drug) is formed at the inner wall of a flask. The thin molecular film is resuspended in an aqueous phase, which contains the dye, and which may contain further components such as buffers, ions, cryoprotectants, etc. A typical formulation consists of a suspension of 25 mM DOTAP/DOPC 1:1, which is resuspended by a 5 mM solution of the dye.
(§1) As an example, in table 1 the results from some experiments are given. For comparison as well a formulation with anionic lipids was performed. For the anionic liposomes, most of the dye is lost during diafiltration, while for the cationic liposomes a large molar fraction of the dye remains immobilized in the lioposme suspension. […] For the CF experiments a lower bulk concentration of the dye was selected, because in that case binding is so strong, that for higher concentrations the liposomes will be destabilized due to the sterical hindrance by the CF molecules. The fraction of dye which was found immobilized in the suspensions from cationic liposomes was much higher that for the (anionic) DOPG containing liposomes. A band shift (λ max) in the absorption spectrum was observed, which increased as AF<F<CF, indication increasing binding strength. On the contrary, for the DOPG liposomes, no shift of the absorption maximum occurred. This can be seen most clearly in FIG. 1, where the complete spectra for the free and the liposomal dyes are depicted.
Separation of low molecular compounds from the liposomal suspensions Diafiltration techniques were used to separate low molecular components from the liposomal suspensions. For the above described 15 mM DOTAP/DOPC 1:1 formulations with 5 mM dye in the aqueous phase, ca. 50% of the dye was retained in the liposome suspension for AF, and 60% was retained for F. With 0.5 mM of CF, virtually 100% of the dye was retained in the solution (the amount of released dye was monitored by UV-vis)spectroscopy.

The nature of series [2]: Remote loading of DOTAP/DOPC liposomes with AF, dialysis and UV-vis. The note with it: remote loading: 25 mM DOTAP/DOPC liposomes mixed with equal volume of 5 mM AF. In kind it is physicochemical. The protocol: The association of the dye to the liposomes can be performed as well to an already prepared formulation, by simply mixing the dye solution with the liposome suspension. […] The efficacy of the loading can be determined by diafiltration and by UV-vis and fluorescence spectroscopy of the suspension. As an example the results from remote loading of DOTAP/DOPC liposomes with AF (the most weakly binding fluorescein variety) are given. A 25 mM suspension of the pure lipid liposomes was prepared by the standard procedure. Then a 5 mM solution of AF was added to the suspension (equal volumina). Subsequently the suspension was dialyzed in order to remove the free dye. The dye content in the solution was controlled by UV-vis spectroscopy. In FIG. 2, the spectra after mixing, after dialysis, and after addition of triton are shown. The triton was added in order to destroy the liposomes and the release the lipid-bound dye.

Series [3] is described as follows: UV-vis absorption maximum (band shift) of liposome-associated fluorescein dyes. The following applies: 25 mM. In kind it is physicochemical. The protocol:
as §1, with “depicted. All stages of formulation are monitored by HPLC analysis (lipid and drug) and by UV-vis spectroscopy. In HPLC analysis a slight loss of material after extrusion may be observed. UV-vis spectroscopy serves as a qualitative means in order to control formulation efficacy. The UV-vis spectra of the dye are shifted on binding to the lipid. The band shift is a function of the binding constant and the fraction of lipid bound and free dye can be estimated by UV-vis spectroscopy.” for “depicted.”

Series [4] can be described thus: Gel filtration (Microspin S-300 HR) separation of non-associated patent blue from liposomes. In kind it is physicochemical. The note with it: 50 μl loaded on Microspin S-300 HR. The protocol: Gel filtration is employed to separate the dye (MW<1000 Da) from the colloidal liposome. The free dye is retained in the pores of the column, the liposomes are so large that they elute without retention in the void volume. It is expected that in a liposomal formulation with a lipid concentration of 10 mM approximately 2% of the aqueous phase is entrapped in the liposomes, 98% are not entrapped (Liposomes a practical approach, Ed. R. R. C. New, IRL Press, Oxford 1990). This amount of dye is to be separated from the liposome by gel filtration.
A Microspin™ S-300 HR column (Amersham) was pre-equilibrated as required in the product description and loaded with 50 μl of the neutral liposomal formulation C. The goal was to investigate whether patent blue not associated with the liposomes can be separated from the liposomal fraction as described in the literature (Reynolds, J. A.; Nozaki, Y.; Tanford, C. Gel-exclusion chromatography on S1000 Sephacryl: application to phospholipid vesicles. Anal Biochem 1983, 130 (2), 471-474.) The majority of the dye was retained on the column, a slightly blue solution eluted (liposomes with associated dye; about 2% as estimated by UV spectroscopy). This illustrates that for neutral liposomes we can apply well-established separation protocols to separate un-associated material. […]
(In gel filtration, larger molecules generally elute earlier.)

A further series relates to A-375 Melanoma. The series can be described thus: Treatment of A-375 melanoma in NMRI nude mice with Taxol and SuccTXL cationic liposomes. In kind it is in vivo. The following applies: iv, three times a week for three weeks, equitoxic doses; s.c. A-375 tumors; FIG. 9. The procedure:
NMRI-nude mice from Elevage Janvier and housed in isolated ventilated cages under save environmental conditions (SPF facility, 22° C., 30-70% humidity, 12 h light/dark cycle) with food and water ad libitum. Experimental design was reviewed and approved by local government.
Tumor cells (A-375 human melanoma cell line, ATCC Nr.: CRL-1619) were grown as described in the data sheet supplied by ATCC. Tumor cells (5×10^6 in PBS) were inoculated s.c. in the right dorsal flank of mice in a volume of 50 μl on day 0.
Mice were assigned to the experimental groups (8 animals per cage), housed and handled (including monitoring of the body weight gain) at least five days before tumor inoculation (=day −6 to 0). Drug treatment begins after the tumors reached a volume of approximately 100 mm^3. […] Equitoxic doses of the compounds were determined in separate experiments, where toxicity was evaluated based on haematological parameters, body weight and animal clinical observations. […]
Animals were clinically monitored during the whole experiment and for at least one week after treatment was finished. […] The tumor dimensions were measured by calliper and the tumor size was calculated according to the following formula: V=πLW^2/6 (L=greatest length, W=width of perpendicular axis). […] The number of red and white blood cells and platelets were determined using an automated cell counter (Abbott Cell Dyn 3500).

Another series concerns A-375. Briefly: MTT cell viability assay, 72 h. In kind it is cell-based. The following applies: Homo sapiens. The procedure: (§2) A-375 ([…]) and Ea.Hy cells ([…]) is seeded at a constant density (2×10^4/cm^2) in 24-well plates and cultivated over night at conditions of 5-5.5% CO2, 37° C. and ˜90% humidity. At day 1, cell culture medium is replaced by a mixture of fresh medium and a series of 11 consecutive drug dilutions is added to each well (duplicates) to cover a range between 0.1 and 1000 nM final drug concentration. After 72 h, the cell viability in each well is determined by measuring the activity of mitochondrial dehydrogenases (MTT assay). In viable cells the MTT substrate is converted to a blue, cell impermeable dye (Formazan). After 1 h the medium is removed, cells are lysed with isopropanol/0.04% HCl and the amount of the blue Formazan given as optical density at a wavelength of 550 nm (OD550 nm) quantitated in an ELISA reader. The experiment is evaluated using the Sigma Plot analysis software by plotting the mean OD550 nm value against the respective drug concentration. A best fit curve is calculated based on a double-sigmoid assumption algorithm and the IC50 value is determined according to this best fit curve with the following result: […]
For orientation: Tetrazolium assays rely on reduction of a dye to a coloured formazan, in cell work by metabolically active cells.

Another series has as its system Ea.Hy cells. The series can be described thus: MTT cell viability assay, 72 h. The following applies: Homo sapiens. In kind it is cell-based. The procedure:
as §2

Series [5] can be described thus: Liposomal fluoride concentration after dialysis (ion chromatography). In kind it is physicochemical. The following applies: rehydrated with 150 mM sodium fluoride, 3 dialysis steps. The procedure: The lipids (either 10 mM DOTAP or 10 mM DOPC) are dissolved in chloroform and the solution is transferred into a round bottom flask. The organic solvent is evaporated under reduced pressure forming a clear lipid film on the flask's surface. This film is dried at 40° C. under vacuum (3 to 5 mbar) for about 60 minutes. Then, the film is rehydrated with the appropriate volume of an aqueous 150 mM sodium fluoride solution resulting in a liposomal solution. The next day, the liposomal solution is extruded 5 times through a 200 nm membrane. The size of the liposomes is determined by PCS (Zetasizer 1000 and 3000, Malvern Instruments). The fluoride that is not associated with the liposomes is removed by 3 successive dialysis steps (8 hours, Pierce, Slide-A-Lyzer dialysis cassette; 10000 molecular weight cut off) and the liposomal fluoride concentration is established by ion chromatography. For cationic 10 mM DOTAP liposomes the fluoride concentration is 1.3 mM, whereas the fluoride ion concentration is about 4 times lower for neutral 10 mM DOPC liposomes (0.3 mM fluoride). The far lower fluoride ion concentration of neutral liposomes is explained by the attractive forces of cationic lipids interacting with the negatively charged halide anion.

A short description of series [6]: Chemical stability of succinyl paclitaxel in aqueous solution (HPLC, paclitaxel release). In kind it is physicochemical. The note with it: for paclitaxel release: 4° C., 0.1 mM Tris-buffered.

By IC50 is commonly meant the concentration at which inhibition is half-maximal. A higher IC50 goes with weaker potency.

Take `Nc1ccc(-c2c3ccc(=O)cc-3oc3cc(O)ccc23)c(C(=O)O)c1` [AF, aminofluorescein]: the “dye retained in the liposome suspension after diafiltration” value in series [1] (15 mM DOTAP/DOPC 1:1, 5 mM dye in the aqueous phase) was “ca. 50%”. In addition, the “Conc. marker after diafiltration” value in series [1] (DOTAP/DOPC 50/50 liposomes, conc. before diafiltration […]) was 800 µg/mL. In addition, the “dye remained bound to the liposomes after dialysis” value in series [2] is given as “ca. 50%”. Besides, the λ max in series [3] (DOTAP/DOPC 50/50 liposomes) came to 497.6 nm.
For the compound `CCN(CC)c1ccc(C(=C2C=CC(=[N+](CC)CC)C=C2)c2cc(O)c(S(=O)(=O)O)cc2S(=O)(=O)O)cc1` [PB, Patent blue], the “separation of dye from liposomes on gel filtration column (in words)” value in series [4] was “trapped in the pores of the column material”.
For `CC(=O)O[C@H]1C(=O)[C@@]2(C)[C@H]([C@H](OC(=O)c3ccccc3)[C@]3(O)C[C@H](OC(=O)[C@H](O)[C@@H](NC(=O)c4ccccc4)c4ccccc4)C(C)=C1C3(C)C)[C@]1(OC(C)=O)CO[C@@H]1C[C@@H]2O` [Taxol ®, Paclitaxel], the “tumor growth rate (in words)” value in the series on A-375 Melanoma was “reduced the tumor growth only to a limited extent”. Also, the IC50 with A-375 was 2 nM; in the series on Ea.Hy cells, 3 nM.
For the compound `[F-].[Na+]` [fluoride, sodium fluoride], the liposomal fluoride concentration in series [5] (cationic 10 mM DOTAP liposomes) is 1.3 mM; in series [5] (neutral 10 mM DOPC liposomes), 0.3 mM.
`CC(=O)O[C@H]1C(=O)[C@@]2(C)C([C@H](OC(=O)c3ccccc3)[C@]3(O)C[C@H](OC(=O)C(OC(=O)CCC(=O)O)C(NC(=O)c4ccccc4)c4ccccc4)C(C)=C1C3(C)C)[C@]1(OC(C)=O)CO[C@@H]1C[C@@H]2O` (stereo partly drawn) [succinyl paclitaxel]: the paclitaxel release in series [6] (pH 5, after 9 days) is 4%; in series [6] (pH 7, after 9 days), 4%; in series [6] (pH 9, after 9 days), 70%. Also, the “paclitaxel release (in words)” value in series [6] (40° C., all pH values (5, 7, 9), within 56 hours) is listed as “intensive release of paclitaxel”. Besides, the IC50 came out at 10 nM in the series with A-375 and 17 nM with Ea.Hy cells.
Take carboxy-fluorescein [CF]: in series [1] (15 mM DOTAP/DOPC 1:1, 0.5 mM of CF), the “dye retained in the liposome suspension after diafiltration” value is about 100%. Further, the “Conc. marker after diafiltration” value in series [1] (DOPG/DOPC 95/5 (anionic) liposomes, conc. before diafiltration 1.9 mg/ml) is 120 µg/mL; in series [1] (DOTAP/DOPC 50/50 liposomes, conc. before diafiltration 0.19 mg/ml), 190 µg/mL. For the same compound, the λ max in series [3] (DOPG/DOPC 95/5 liposomes) is 492.6 nm; in series [3] (DOTAP/DOPC 50/50 liposomes), 506 nm.
